According to PubChem BioAssay AID743128 (Broad Institute, 2013):
Where “and” joins values, the source holds several entries; their conditions need not be identical. Identical values can stand only once. Calls of active or inactive are those of the source.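 Rule for the calls: active = compounds lowering the signal whose fitted half-maximal concentration is at most twice the top tested dose; inconclusive = flat curve with 30 to 70% inhibition, or poor fit; inactive = the rest.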

System: not listed separately
Test: antifungal activity, alamar blue, dry powder, counter-screen for C. neoformans cell wall antifungals, dose response (AID 743128)
Conditions: C. neoformans growth, alamar blue, 24 h; at 35 µM (top of the series)

**Q.** Which activity change, negative = inhibition does the source give for `c1ccc(OCCn2cnc3ccccc32)cc1` here?
**A.** -10.7% (inactive)

**Q.** For `CCOC(=O)c1c(NC(=O)CNCCN(C)C)sc(C)c1-c1ccccc1`, which activity change, negative = inhibition is on record?
**A.** -16.3% (inactive)

**Q.** With `CCOC(=O)c1c(-c2ccc(OC)cc2)csc1NC(=O)CN(C)CC(=O)N(C)C` as the compound, how does the activity change, negative = inhibition read?
**A.** -14.4% (inactive)

**Q.** For `O=c1[nH]c2ccccc2n1CCOc1ccccc1`, which activity change, negative = inhibition is on record?
**A.** -1.57% (inactive) and -23.3% (inactive)

**Q.** For `Cc1cccc(OCCn2c(=S)[nH]c3cc(C(F)(F)F)ccc32)c1`, which activity change, negative = inhibition is on record?
**A.** 8.48% (inactive)

**Q.** Which activity change, negative = inhibition does the source give for `CCOC(=O)c1c(-c2ccc(F)cc2)csc1NC(=O)CN1CCN(C)CC1` here?
**A.** -11.2% (inactive)

System: C. neoformans growth, alamar blue, 24 h
Test: as above
Conditions: not given

**Q.** For `Cc1ccc(OCCn2c(=S)[nH]c3ccccc32)cc1`, which AC50 is on record?
**A.** 9.48 µM

**Q.** Which AC50 does the source give for `S=c1[nH]c2cccc(Cl)c2n1CCOc1ccccc1` here?
**A.** 6.35 µM

**Q.** With `Fc1ccccc1OCCn1c(=S)[nH]c2ccccc21` as the compound, how does the AC50 read?
**A.** 25.4 µM

**Q.** With `COC(=O)C1=C(C)N(Cc2ccc(F)cc2)C(=S)NC1c1cccc(F)c1` (configuration not stated) as the compound, how does the AC50 read?
**A.** 18.3 µM

**Q.** Which AC50 does the source give for `COC(=O)C1=C(C)N(Cc2ccc(Cl)cc2)C(=S)NC1c1ccc(Br)cc1` (configuration not stated) here?
**A.** 1.97 µM

**Q.** With `Cc1ccc2c(c1)[nH]c(=S)n2CCOc1ccccc1` as the compound, how does the AC50 read?
**A.** 24.3 µM

**Q.** For `CCOC(=O)c1c(-c2ccc(C(C)(C)C)cc2)csc1NC(=O)CN1CCN(CC)CC1`, which AC50 is on record?
**A.** 15.7 µM

**Q.** With `Cc1ccc(C(C)C)c(OCCn2c(=S)[nH]c3ccccc32)c1` as the compound, how does the AC50 read?
**A.** 4.14 µM

**Q.** For `COC(=O)C1=C(C)N(Cc2ccc(Br)cc2)C(=S)NC1c1ccc(OC)cc1` (configuration not stated), which AC50 is on record?
**A.** 9.31 µM

**Q.** With `Cc1ccc(OCCn2c(SCCO)nc3ccccc32)c(C(C)C)c1` as the compound, how does the AC50 read?
**A.** 25.1 µM

**Q.** Which AC50 does the source give for `COC(=O)C1=C(C)N(Cc2ccccc2)C(=S)NC1c1ccc(Br)cc1` (configuration not stated) here?
**A.** 8.1 µM

**Q.** With `CCOc1ccc(OCCn2c(=S)[nH]c3ccccc32)cc1` as the compound, how does the AC50 read?
**A.** 25.5 µM

**Q.** Which AC50 does the source give for `Cc1ccc(OCCn2c(=S)[nH]c3ccccc32)c(C(C)C)c1` here?
**A.** 5.33 µM and 5.68 µM

**Q.** With `CCOC(=O)c1c(-c2ccc(-c3ccccc3)cc2)csc1NC(=O)CNCCN(C)C` as the compound, how does the AC50 read?
**A.** 21.7 µM

**Q.** With `S=c1[nH]c2ccccc2n1CCOc1ccccc1` as the compound, how does the AC50 read?
**A.** 24.9 µM

**Q.** Which AC50 does the source give for `CCOC(=O)c1c(NC(=O)CN2CCN(C)CC2)sc(C)c1-c1ccc(C)cc1` here?
**A.** 25.7 µM

**Q.** With `S=c1[nH]c2ccccc2n1CCOc1ccc(Cl)cc1` as the compound, how does the AC50 read?
**A.** 10.9 µM

**Q.** With `Fc1cccc2c1[nH]c(=S)n2CCOc1ccccc1` as the compound, how does the AC50 read?
**A.** 25.4 µM

**Q.** For `Cc1ccccc1OCCn1c(=S)[nH]c2ccccc21`, which AC50 is on record?
**A.** 8.04 µM

**Q.** For `CCOC(=O)c1c(-c2ccc(C(C)(C)C)cc2)csc1NC(=O)CN1CCN(C)CC1`, which AC50 is on record?
**A.** 15 µM

**Q.** Which AC50 does the source give for `COC(=O)C1=C(C)N(Cc2ccc(Br)cc2)C(=S)NC1c1ccc(F)cc1` (configuration not stated) here?
**A.** 4.9 µM
